Assay results reported in patent US20230312639A1, “GPER PROTEOLYTIC TARGETING CHIMERAS” (University of Iowa Research Foundation, priority 2020, published 2023).

Tests used:
[1] = tested on: ERs (ERa and ERb); assay: Fluorescence polarization competitive binding with E2-FITC in cytosolic fractions from MCF-7 cells; parameters: species or system human
Description: ER binding was measured using cytosolic fractions prepared from MCF-7 cells by fluorescence polarization. MCF-7 (10^6 cells) were detached in EDTA, cell homogenates were prepared using a Dounce homogenizer and subcellular fractions were isolated by differential centrifugation as previously described (Filardo et al, 2002). The protein concentration of each fraction was determined by bichinchoninic acid (BCA) assay (Pierce ™ BCA protein assay kit, Thermo Fisher). For saturation binding assay of the probe, different concentrations of cytosolic fraction were diluted in assay buffer (10 mM Tris-HCl, pH 7.4; 50 mM KCl, 10% glycerol, 0.1 mM dithiothreitol (DTT), 1 ug/mL BGG, 10 nM protease inhibitor cocktail (Roche) to a final volume of 200 uL containing 10 nM Ez-FITC. The mixture was incubated at ambient temperature for 1 hour and interaction of the probe with cytosolic protein was determined by fluorescence polarization (FP). For competitive binding assay, an aliquot of cytosolic fraction and E2-FITC (10 nM final concentration) was mixed and incubated at 4° C. for 1 hour. Then different concentrations of drugs and controls were added to the mixture. The mixture was incubated for an additional hour and then subjected to FP. All samples were measured in triplicate. Negative controls (only cytosolic fraction or only E2-FITC) and positive control (E2-FITC and cytosolic fraction at 100% binding without treatment) were included. Relative binding affinities were expressed as the percentage of FP recorded from treated wells compared to the positive control. FP values in millipolarization units (mP) were measured at ex/em wavelength of 485 nm/530 nm respectively using the Spectra Max plus 384 Microplate Spectrophotometer (Molecular Devices, Sunnyvale, CA) in 96-well, black, flat-bottom microplates (Greiner Bio-One North America, Inc., Monroe, NC). Kd values of the probe were determined by nonlinear regression fitting of the saturation curves, while IC50 values of treatment were determined by nonlinear regression fitting of the competition curves.
In contrast to GPER, ERa and ERb are intracellular receptors that are concentrated in the cytoplasm and in the nucleus. […] A saturation analysis was performed using 10 nM E2-FITC and increasing concentrations of cytosolic protein (FIG. 25D).

[2] = tested on: HCC1806 cells; assay: Cell viability assay, 24 hour treatment; assay type: cell-based, human; conditions: HCC1806, 24 hours, mean ± SD
Description: (§1) Cell cytotoxicity assays. […] In brief, breast cancer cells were seeded in 96 well-plates at a density of 10^4 cells/well in growth media. On the following day, the contents of the 96 well plates were aspirated and replaced by treatment at different concentrations (ranging from 10^-9 to 10^-3 M), followed by the addition of media to bring the total volume to 200 µL/well. The untreated control group was incubated with 200 µL/well of fresh media. One day later, the media were aspirated and replaced by 90 µL media + 10 µL Prestoblue reagent, followed by incubation at 37° C. for 1 h. The fluorescence was excited at 560 nm and emission was recorded at 590 nm using a Spectra Max plus 384 Microplate Spectrophotometer (Molecular Devices, Sunnyvale, CA). Relative cell viability values were expressed as the percentage of the fluorescence recorded from wells containing treated cells compared to the control wells containing untreated cells.
(§2) Each breast cancer cell line was treated for 24 hours with various concentrations of E2-PROTAC or partial PROTAC and then cell viability was assessed using an MTS assay that measures mitochondrial oxido-reductase enzymes capable of converting a tetrazolium salt to a formazan dye (summarized in Table 2). […] These IC50 values were similar to those measured for cells treated with partial PROATAC.

[3] = tested on: MCF-7 cells; assay: Cell viability assay, 24 hour treatment; assay type: cell-based, human; conditions: MCF-7, 24 hours, mean ± SD
Description: as §1, §2

[4] = tested on: MDA-MB-231 cells; assay: Cell viability assay, 24 hour treatment; assay type: cell-based, human; conditions: MDA-MB-231, 24 hours
Description: as §1, §2

[5] = tested on: SKBR3 cells; assay: Cell viability assay, 24 hour treatment; assay type: cell-based, human; conditions: SKBR3, 24 hours, mean ± SD
Description: as §1, §2

[6] = biological target: GPER (Homo sapiens, UniProt Q99527); assay: Immunostaining of surface and intracellular GPER in SKBR3 cells; conditions: SKBR3, 100 uM, 1 hour
Sequence of GPER (Q99527 whole entry): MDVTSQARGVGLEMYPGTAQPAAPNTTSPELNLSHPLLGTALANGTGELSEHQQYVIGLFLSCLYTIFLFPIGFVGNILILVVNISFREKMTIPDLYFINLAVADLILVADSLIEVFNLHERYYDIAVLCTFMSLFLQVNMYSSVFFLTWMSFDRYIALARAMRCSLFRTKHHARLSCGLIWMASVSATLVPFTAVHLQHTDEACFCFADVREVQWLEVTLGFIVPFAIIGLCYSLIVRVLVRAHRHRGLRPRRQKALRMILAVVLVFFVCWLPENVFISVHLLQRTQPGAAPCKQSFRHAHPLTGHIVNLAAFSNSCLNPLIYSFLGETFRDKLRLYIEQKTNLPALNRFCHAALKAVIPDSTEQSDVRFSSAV

Question: What does the source list for Cc1ncsc1-c1ccc(CNC(=O)C2CC(O)CN2C(=O)C(NC(=O)COCCOCCOCCOCC(=O)OC2CCC3C4CCc5cc(O)ccc5C4CCC23C)C(C)(C)C)cc1 (centres unmarked) [UI-EP001]?
Answer: RBA%, ERs ([1]; IC50 of 17β-E2 divided by IC50 of test compound): 32%; IC50 ([1]; MCF-7 cytosolic fraction, 10 nM E2-FITC, mean ± SD of triplicates): 17.2 ± 8.2 nM; Kd ([1]; MCF-7 cytosolic fractions, E2-FITC, read-out: binding dissociation constant (Kd), ER): 0.0172 µM; IC50 [2]: 34.9 ± 1.2 µM; IC50 [3]: 9 ± 1.2 µM; IC50 [4]: > 100 µM; IC50 [5]: 10.9 ± 1.2 µM; plasma membrane and total GPER [6]: reduced plasma membrane and total GPER
